# Reference: paper PMC11204923, “Marine Cytotoxin Santacruzamate A Derivatives as Potent HDAC1-3 Inhibitors and Their Synergistic Anti-Leukemia Effects with Venetoclax” (Marine Drugs, 2024)
# Key:
# Format in all cases: biochemical
# [1] = target: T1, HDAC3 (Homo sapiens, UniProt O15379); assay: In vitro HDAC inhibition fluorescence assay, HDAC3; conditions: for inhibition at 0.01 µM: 10 nM; for inhibition at 0.01 µM / inhibition at 0.1 µM: read-out: Inhibition Rate of HDAC3 (%); for inhibition at 0.1 µM: 100 nM
# T1 construct: purchased BPS Bioscience
# T1 sequence (O15379 whole entry): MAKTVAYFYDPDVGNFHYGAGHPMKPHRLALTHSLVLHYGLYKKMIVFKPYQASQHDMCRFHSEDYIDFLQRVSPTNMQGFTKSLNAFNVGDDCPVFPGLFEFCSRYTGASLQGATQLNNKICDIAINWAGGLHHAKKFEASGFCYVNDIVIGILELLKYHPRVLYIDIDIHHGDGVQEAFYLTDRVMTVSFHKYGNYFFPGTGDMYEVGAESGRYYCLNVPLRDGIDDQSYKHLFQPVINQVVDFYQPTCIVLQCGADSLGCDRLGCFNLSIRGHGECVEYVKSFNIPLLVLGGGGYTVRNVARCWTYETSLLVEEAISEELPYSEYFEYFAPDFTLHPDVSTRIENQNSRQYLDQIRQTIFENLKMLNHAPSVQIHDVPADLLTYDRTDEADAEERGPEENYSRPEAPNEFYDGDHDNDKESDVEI
# T1 sequence (Q9Y618 395-489 partner limits assumed): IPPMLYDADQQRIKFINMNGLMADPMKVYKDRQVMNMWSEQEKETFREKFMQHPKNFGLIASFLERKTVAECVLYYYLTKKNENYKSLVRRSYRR
# Experimental: (§1) All of the HDAC enzymes were purchased from BPS Bioscience. In vitro HDAC inhibition assays were conducted as previously described. In brief, 20 μL of recombinant HDAC enzyme solution (HDAC1-9, 11) was mixed with various concentrations of the tested compound (20 μL). […] After incubation at 37 °C for 2 h, the catalysis was stopped by the addition of 10 μL of developer containing 30 mg/mL trypsin and 6 μM trichostatin A (TSA). Then, 30 min later, the fluorescence intensity was measured using a microplate reader at excitation and emission wavelengths of 360 and 460 nm, respectively. The inhibition ratios were calculated from the fluorescence intensity readings of tested wells relative to those of control wells, and the IC50 curves and values were determined by GraphPad Prism 6.0, using the “log(inhibitor) vs. normalized response-variable slope” function.
# [2] = target: T2, HDAC1 (Homo sapiens, UniProt Q13547); assay: In vitro HDAC inhibition fluorescence assay, HDAC1; conditions: for inhibition at 0.01 µM: 10 nM; for inhibition at 0.01 µM / inhibition at 0.1 µM: read-out: Inhibition Rate of HDAC1 (%); for inhibition at 0.1 µM: 100 nM
# T2 construct: purchased BPS Bioscience
# T2 sequence (Q13547 whole entry): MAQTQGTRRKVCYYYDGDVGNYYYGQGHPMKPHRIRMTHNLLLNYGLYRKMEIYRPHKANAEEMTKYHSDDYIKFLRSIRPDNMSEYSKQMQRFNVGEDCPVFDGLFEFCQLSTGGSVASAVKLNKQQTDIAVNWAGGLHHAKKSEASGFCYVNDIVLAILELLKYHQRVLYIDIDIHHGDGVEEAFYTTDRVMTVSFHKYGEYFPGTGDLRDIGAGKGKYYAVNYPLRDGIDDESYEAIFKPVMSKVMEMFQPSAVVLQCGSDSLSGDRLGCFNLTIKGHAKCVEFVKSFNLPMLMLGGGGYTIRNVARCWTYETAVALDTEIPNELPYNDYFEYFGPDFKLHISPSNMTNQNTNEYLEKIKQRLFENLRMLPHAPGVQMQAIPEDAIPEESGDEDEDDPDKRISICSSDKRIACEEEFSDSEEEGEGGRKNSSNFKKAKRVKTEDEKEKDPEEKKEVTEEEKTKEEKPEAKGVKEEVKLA
# Experimental: as §1
# [3] = target: T3, HDAC2 (Homo sapiens, UniProt Q92769); assay: In vitro HDAC inhibition fluorescence assay, HDAC2
# T3 construct: purchased BPS Bioscience
# T3 sequence (Q92769 whole entry): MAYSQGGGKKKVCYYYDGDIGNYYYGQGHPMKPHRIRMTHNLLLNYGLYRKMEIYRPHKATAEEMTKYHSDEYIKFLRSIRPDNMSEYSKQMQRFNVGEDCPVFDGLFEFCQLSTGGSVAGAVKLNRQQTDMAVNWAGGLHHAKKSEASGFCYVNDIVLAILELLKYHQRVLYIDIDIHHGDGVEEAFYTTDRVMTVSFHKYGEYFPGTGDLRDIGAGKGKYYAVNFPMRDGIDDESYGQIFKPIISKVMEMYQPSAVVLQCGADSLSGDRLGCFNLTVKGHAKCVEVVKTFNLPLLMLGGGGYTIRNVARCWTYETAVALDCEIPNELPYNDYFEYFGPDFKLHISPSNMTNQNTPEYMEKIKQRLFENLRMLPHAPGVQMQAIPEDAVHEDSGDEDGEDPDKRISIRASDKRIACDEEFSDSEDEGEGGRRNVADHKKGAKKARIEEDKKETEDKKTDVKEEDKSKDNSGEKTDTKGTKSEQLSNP
# Experimental: as §1
SMILES,inhibition at 0.01 µM [1],inhibition at 0.1 µM [1],inhibition at 0.01 µM [2],inhibition at 0.1 µM [2],IC50 [3],IC50 [2],IC50 [1]
"CCCNNC(=O)CCC(=O)NCCc1ccccc1 [Compound 9a, 4-Oxo-N-phenethyl-4-(2-propylhydrazineyl)butanamide]",-0.6 ± 1.9%,11.1 ± 0.5%,2.2 ± 2.3%,0.3 ± 1.7%,–,–,–
"CCCNNC(=O)CCCC(=O)NCCc1ccccc1 [Compound 9b, 5-Oxo-N-phenethyl-5-(2-propylhydrazineyl)pentanamide]",11.5 ± 0.7%,53.7%,-9.2 ± 1.4%,3.1 ± 1.1%,–,–,–
"CCCNNC(=O)CCCCC(=O)NCCc1ccccc1 [Compound 9c, 6-Oxo-N-phenethyl-6-(2-propylhydrazineyl)hexanamide]",18.2 ± 2.9%,61.9 ± 0.7%,-6 ± 1.2%,27.5 ± 0.6%,–,–,–
"CCCNNC(=O)CCCCCC(=O)NCCc1ccccc1 [Compound 9d, 7-Oxo-N-phenethyl-7-(2-propylhydrazineyl)heptanamide]",21.2 ± 1.5%,76.82 ± 0.47%,5.58 ± 2.39%,52 ± 2.86%,–,–,–
"CCCNNC(=O)CCCCCCC(=O)NCCc1ccccc1 [Compound 9e, 8-Oxo-N-phenethyl-8-(2-propylhydrazineyl)octanamide]",38.8 ± 3%,85.5 ± 0.6%,12 ± 0.9%,65.6 ± 0.1%,–,–,–
"CCCNNC(=O)CCCCCCCC(=O)NCCc1ccccc1 [Compound 9f, 9-Oxo-N-phenethyl-9-(2-propylhydrazineyl)nonanamide]",19.6 ± 8%,79.9 ± 0.8%,15.9 ± 1.6%,57.1 ± 0.7%,–,–,–
"CCCNNC(=O)c1ccc(C(=O)NCCc2ccccc2)cc1 [Compound 9g, N-Phenethyl-4-(2-propylhydrazine-1-carbonyl)benzamide]",11.2 ± 8%,50.6 ± 5.4%,23.5 ± 2%,30.1 ± 2.1%,–,–,–
"CCCNNC(=O)c1ccc(CC(=O)NCCc2ccccc2)cc1 [Compound 9h, N-Phenethyl-2-(4-(2-propylhydrazine-1-carbonyl)phenyl)acetamide]",-4.61 ± 13.6%,-5.9 ± 0.6%,5.61 ± 1.6%,10.1 ± 0.7%,–,–,–
"CCCNNC(=O)Cc1ccc(C(=O)NCCc2ccccc2)cc1 [Compound 9i, 4-(2-Oxo-2-(2-propylhydrazineyl)ethyl)-N-phenethylbenzamide]",-0.8 ± 4.2%,-3.1 ± 3.4%,12.5 ± 0.2%,16.4 ± 1.2%,–,–,–
"CCCNNC(=O)CCc1ccc(C(=O)NCCc2ccccc2)cc1 [Compound 9k, 4-(3-Oxo-3-(2-propylhydrazineyl)propyl)-N-phenethylbenzamide]",–,–,23.1 ± 2.1%,67.9 ± 1.4%,0.374 ± 0.0217 µM,0.122 ± 0.0186 µM,–
"CCCNNC(=O)c1ccc(CCC(=O)NCCc2ccccc2)cc1 [Compound 9m, N-Phenethyl-3-(4-(2-propylhydrazine-1-carbonyl)phenyl)propanamide]",27.2 ± 2.7%,80.7 ± 0.7%,21.2 ± 0.9%,67.3 ± 2.8%,–,–,–
"CCCNNC(=O)CCCNC(=O)Cc1ccccc1 [Compound 14a, N-(4-Oxo-4-(2-propylhydrazineyl)butyl)-2-phenylacetamide]",2.4 ± 2.9%,18.2 ± 3.3%,-7 ± 2.6%,2.3 ± 2.4%,–,–,–
"CCCNNC(=O)CCCCNC(=O)Cc1ccccc1 [Compound 14b, N-(5-Oxo-5-(2-propylhydrazineyl)pentyl)-2-phenylacetamide]",16.6 ± 3.2%,45.2 ± 1.1%,-9.04 ± 0.1%,7.7 ± 2.1%,–,–,–
"CCCNNC(=O)CCCCCNC(=O)Cc1ccccc1 [Compound 14c, N-(6-Oxo-6-(2-propylhydrazineyl)hexyl)-2-phenylacetamide]",16.1 ± 3.3%,54.4 ± 0.7%,-6.8 ± 2.1%,14.4 ± 2.4%,–,–,–
"CCCNNC(=O)CCCCCCNC(=O)Cc1ccccc1 [Compound 14d, N-(7-Oxo-7-(2-propylhydrazineyl)heptyl)-2-phenylacetamide]",21.2 ± 1.5%,76.8 ± 0.4%,1.9 ± 3.7%,43.2 ± 0.1%,–,–,–
"CCCNNC(=O)CCCCCCCNC(=O)Cc1ccccc1 [Compound 14e, N-(8-Oxo-8-(2-propylhydrazineyl)octyl)-2-phenylacetamide]",23.1 ± 0.1%,71.5 ± 0.7%,8.8 ± 3.7%,51.6 ± 0.9%,–,–,–
"CCCNNC(=O)CCCCCCCCNC(=O)Cc1ccccc1 [Compound 14f, N-(9-Oxo-9-(2-propylhydrazineyl)nonyl)-2-phenylacetamide]",3.2 ± 10.6%,48.8 ± 1.1%,9.8 ± 0.4%,32.7 ± 1.2%,–,–,–

# Second part, the compound after the results:
inhibition at 0.01 µM [1],inhibition at 0.1 µM [1],inhibition at 0.01 µM [2],inhibition at 0.1 µM [2],IC50 [3],IC50 [2],IC50 [1],SMILES
–,–,32.8 ± 0.1%,76.7 ± 0.3%,0.0694 ± 0.0034 µM,0.0358 ± 0.0036 µM,–,"CCCNNC(=O)C=Cc1ccc(C(=O)NCCc2ccccc2)cc1 [Compound 9j, 4-(3-Oxo-3-(2-propylhydrazineyl)prop-1-en-1-yl)-N-phenethylbenzamide]"
78.1 ± 0.1%,87.2 ± 2.6%,36.5 ± 2.1%,74.5 ± 0.3%,0.116 ± 0.0114 µM,0.0374 ± 0.0058 µM,0.006 ± 0.0017 µM,"CCCNNC(=O)c1ccc(C=CC(=O)NCCc2ccccc2)cc1 [Compound 9l, N-Phenethyl-3-(4-(2-propylhydrazine-1-carbonyl)phenyl)acrylamide]"
37.4 ± 0.1%,78.2 ± 0.5%,8.1 ± 0.3%,39.9 ± 0.6%,–,–,–,"CCCNNC(=O)C=Cc1ccc(C(=O)NC2Cc3ccccc3C2)cc1 [Compound 19a, N-(2,3-Dihydro-1H-inden-2-yl)-4-(3-oxo-3-(2-propylhydrazineyl)prop-1-en-1-yl)benzamide]"
-1.1 ± 2.3%,18.3 ± 0.5%,-4.6 ± 2.1%,-0.4 ± 1.7%,–,–,–,"CCCNNC(=O)C=Cc1ccc(C(=O)N2CCc3ccccc3C2)cc1 [Compound 19b, N′-Propyl-3-(4-(1,2,3,4-tetrahydroisoquinoline-2-carbonyl)phenyl)acrylohydrazide]"
4.1 ± 9.9%,38.1 ± 0.8%,1.5 ± 1.5%,27.2 ± 2.8%,–,–,–,"CCCNNC(=O)C=Cc1ccc(C(=O)N2CCc3cc(Br)ccc3C2)cc1 [Compound 19c, 3-(4-(6-Bromo-1,2,3,4-tetrahydroisoquinoline-2-carbonyl)phenyl)-N′-propylacrylohydrazide]"
-0.4 ± 3.4%,34.8 ± 1.2%,-1.4 ± 0.5%,38.2 ± 2.3%,–,–,–,"CCCNNC(=O)C=Cc1ccc(C(=O)N2CCc3ccc(Br)cc3C2)cc1 [Compound 19d, 3-(4-(7-Bromo-1,2,3,4-tetrahydroisoquinoline-2-carbonyl)phenyl)-N′-propylacrylohydrazide]"
49.2 ± 0.9%,80.4 ± 0.7%,14.2 ± 1.5%,60.7 ± 0.7%,0.224 ± 0.0194 µM,0.0965 ± 0.0011 µM,0.0082 ± 0.0009 µM,"CCCNNC(=O)C=Cc1ccc(CNc2ccccc2)cc1 [Compound 25a, 3-(4-((Phenylamino)methyl)phenyl)-N′-propylacrylohydrazide]"
62.5 ± 0.4%,86.9 ± 0.1%,9.3 ± 2.3%,61.7 ± 1.1%,0.314 ± 0.0367 µM,0.101 ± 0.027 µM,0.013 ± 0.0064 µM,"CCCNNC(=O)C=Cc1ccc(CNCc2ccccn2)cc1 [Compound 25d, N′-Propyl-3-(4-(((pyridin-2-ylmethyl)amino)methyl)phenyl)acrylohydrazide]"
25.7 ± 1.3%,60.7 ± 0.5%,31.3%,71.2 ± 0.9%,–,–,–,"CCCNNC(=O)C=Cc1ccc(CNc2cccc3ccccc23)cc1 [Compound 25f, 3-(4-((Naphthalen-1-ylamino)methyl)phenyl)-N′-propylacrylohydrazide]"
53.9 ± 0.4%,85.1 ± 0.1%,5.1 ± 1.3%,28.4 ± 1.1%,0.6519 ± 0.0034 µM,0.136 ± 0.0206 µM,0.0278 ± 0.0018 µM,"CCCNNC(=O)C=Cc1ccc(CN2C(=O)c3ccccc3C2=O)cc1 [Compound 30, 3-(4-((1,3-Dioxoisoindolin-2-yl)methyl)phenyl)-N′-propylacrylohydrazide]"
